How the values were obtained:
Assay in all cases: NCI 60 cell panel SRB screen
PC-3 = type: cell-based; conditions: Homo sapiens; for GI50 / IC (TGI) / CC50: PC-3, 5 log dose; for CC50: 48 h, read-out: LC50 (the source's name); for activity at 10 µM: PC-3, single dose 10 μM, read-out: percent cell growth promotion
UO-31 = type: cell-based; conditions: Homo sapiens; for GI50 / IC (TGI) / CC50: UO-31, 5 log dose; for CC50: 48 h, read-out: LC50 (the source's name); for activity at 10 µM: UO-31, single dose 10 μM, read-out: percent cell growth promotion
TK-10 = type: cell-based, human; conditions: for GI50 / CC50 / activity at 10 µM: Homo sapiens; for GI50 / CC50 / TGI: TK-10, 5 log dose; for CC50: 48 h, read-out: LC50 (the source's name); for activity at 10 µM: TK-10, single dose 10 μM, read-out: percent cell growth promotion
MOLT-4 = type: cell-based; conditions: Homo sapiens; for GI50 / IC (TGI) / CC50: MOLT-4, 5 log dose; for CC50: 48 h, read-out: LC50 (the source's name)
MDA-MB-468 = type: cell-based; conditions: Homo sapiens; for activity at 10 µM: MDA-MB-468, MDA-MBA-468, single dose 10 μM, read-out: percent cell growth promotion; for GI50 / IC (TGI) / CC50: MDA-MB-468, 5 log dose; for CC50: 48 h, read-out: LC50 (the source's name)
In short: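 Cells in RPMI 1640 with 5% FBS, preincubated 24 h, then exposed to five concentrations for 48 h at 37 °C. TCA fixation, SRB staining, absorbance at 515 nm; a time-zero plate allows GI50 (50% reduction in net protein gain), TGI and LC50 (50% loss versus start).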

HOP-92 = type: cell-based; conditions: Homo sapiens; for GI50 / IC (TGI) / CC50: HOP-92, 5 log dose; for CC50: 48 h, read-out: LC50 (the source's name); for activity at 10 µM: HOP-92, single dose 10 μM, read-out: percent cell growth promotion
SF-268 = type: cell-based; conditions: Homo sapiens; for GI50 / IC (TGI) / CC50: SF-268, 5 log dose; for CC50: 48 h, read-out: LC50 (the source's name); for activity at 10 µM: SF-268, single dose 10 μM, read-out: percent cell growth promotion
KM12 = type: cell-based; conditions: Homo sapiens; for GI50 / IC (TGI) / CC50: KM12, 5 log dose; for CC50: 48 h, read-out: LC50 (the source's name); for activity at 10 µM: KM12, single dose 10 μM, read-out: percent cell growth promotion
HT29 = type: cell-based; conditions: Homo sapiens, HT-29; for GI50 / IC (TGI) / CC50: HT29, 5 log dose; for CC50: 48 h, read-out: LC50 (the source's name); for activity at 10 µM: HT29, single dose 10 μM, read-out: percent cell growth promotion
HL-60(TB) = type: cell-based; conditions: Homo sapiens; for GI50 / IC (TGI) / CC50: 5 log dose; for CC50: 48 h, read-out: LC50 (the source's name); for activity at 10 µM: single dose 10 μM, read-out: percent cell growth promotion
HCC-2998 = type: cell-based; conditions: Homo sapiens; for GI50 / IC (TGI) / LC50 (50% lethal concentration): HCC-2998, 5 log dose; for LC50 (50% lethal concentration): 48 h; for activity at 10 µM: HCC-2998, single dose 10 μM, read-out: percent cell growth promotion
RXF 393 = type: cell-based; conditions: Homo sapiens; for GI50 / IC (TGI) / CC50: RXF 393, 5 log dose; for CC50: 48 h, read-out: LC50 (the source's name); for activity at 10 µM: RXF 393, single dose 10 μM, read-out: percent cell growth promotion
SK-OV-3 = type: cell-based; conditions: Homo sapiens; for GI50 / IC (TGI) / CC50: SK-OV-3, 5 log dose; for CC50: 48 h, read-out: LC50 (the source's name); for activity at 10 µM: SK-OV-3, single dose 10 μM, read-out: percent cell growth promotion
NCI-H460 = type: cell-based; conditions: Homo sapiens; for GI50 / IC (TGI) / LC50 (concentration causing 50% cell kill): NCI-H460, 5 log dose; for LC50 (concentration causing 50% cell kill): 48 h; for activity at 10 µM: NCI-H460, single dose 10 μM, read-out: percent cell growth promotion
OVCAR-8 = type: cell-based; conditions: Homo sapiens; for GI50 / IC (TGI) / CC50: OVCAR-8, 5 log dose; for CC50: 48 h, read-out: LC50 (the source's name); for activity at 10 µM: OVCAR-8, single dose 10 μM, read-out: percent cell growth promotion
OVCAR-3 = type: cell-based; conditions: Homo sapiens; for GI50 / IC (TGI) / CC50: OVCAR-3, 5 log dose; for CC50: 48 h, read-out: LC50 (the source's name); for activity at 10 µM: OVCAR-3, single dose 10 μM, read-out: percent cell growth promotion
A549/ATCC = type: cell-based; conditions: Homo sapiens; for GI50 / IC (TGI) / LC50 (concentration killing 50% of cells): 5 log dose; for LC50 (concentration killing 50% of cells): 48 h; for activity at 10 µM: single dose 10 μM, read-out: percent cell growth promotion
NCI/ADR-RES = type: cell-based; conditions: Homo sapiens; for GI50 / IC (TGI) / CC50: 5 log dose; for CC50: 48 h, read-out: LC50 (the source's name); for activity at 10 µM: single dose 10 μM, read-out: percent cell growth promotion
UACC-257 = type: cell-based; conditions: Homo sapiens; for GI50: UACC-257; for IC (TGI): UACC-257, read-out: TGI; for activity at 10 µM: UACC-257, read-out: percent cell growth promotion; for CC50: UACC-257, 5 log dose, 48 h, read-out: LC50 (the source's name)

## O=C(Nc1ccc(Cl)cc1)Nc1ccc(Nc2nncc3ccccc23)cc1 [Compound 6b, 1–(4-Chlorophenyl)-3–(4-(phthalazin-1-ylamino)phenyl)urea]
PC-3
  GI50: 2320 nM
  IC (TGI): 11 µM
  CC50: 55.4 µM
  activity at 10 µM: 1.46%
UO-31
  GI50: 1900 nM
  IC (TGI): 15.8 µM
  CC50: > 100 µM
  activity at 10 µM: 19%
TK-10
  GI50: 5.03 µM
  CC50: > 100 µM
  activity at 10 µM: 32%
  TGI: 24.4 µM
MOLT-4
  GI50: 2090 nM
  IC (TGI): 6.36 µM
  CC50: > 100 µM
MOLT-4; MOLT-4, single dose 10 μM, read-out: percent cell growth promotion
  activity at 10 µM: -1.61%
MDA-MB-468
  activity at 10 µM: 0.17%
  GI50: 2.57 µM
  IC (TGI): 9.47 µM
  CC50: > 100 µM
HOP-92
  GI50: 2550 nM
  IC (TGI): 7.26 µM
  CC50: > 100 µM
  activity at 10 µM: 38.7%
SF-268
  GI50: 3.19 µM
  IC (TGI): 28.1 µM
  CC50: > 100 µM
  activity at 10 µM: 42.4%
KM12
  GI50: 1.47 µM
  IC (TGI): 11.4 µM
  CC50: 45 µM
  activity at 10 µM: 18.9%
HT29
  GI50: 2.65 µM
  IC (TGI): 14.1 µM
  CC50: 60 µM
  activity at 10 µM: 32.4%
HL-60(TB)
  GI50: 2420 nM
  IC (TGI): 7 µM
  CC50: > 100 µM
  activity at 10 µM: 18.1%
HCC-2998
  GI50: 3.26 µM
  IC (TGI): 19.8 µM
  LC50 (50% lethal concentration): > 100 µM
  activity at 10 µM: 30.7%
RXF 393
  GI50: 4.28 µM
  IC (TGI): 21.4 µM
  CC50: > 100 µM
  activity at 10 µM: 65.7%
SK-OV-3
  GI50: 3050 nM
  IC (TGI): 17.7 µM
  CC50: > 100 µM
  activity at 10 µM: 38.2%
NCI-H460
  GI50: 2910 nM
  IC (TGI): 11.9 µM
  LC50 (concentration causing 50% cell kill): 56.8 µM
  activity at 10 µM: 9.89%
OVCAR-8
  GI50: 3120 nM
  IC (TGI): 12.4 µM
  CC50: > 100 µM
  activity at 10 µM: 18.2%
OVCAR-3
  GI50: 2570 nM
  IC (TGI): 10.3 µM
  CC50: 70 µM
  activity at 10 µM: 17.6%
A549/ATCC
  GI50: 3.03 µM
  IC (TGI): 19.3 µM
  LC50 (concentration killing 50% of cells): > 100 µM
  activity at 10 µM: 20.1%
NCI/ADR-RES
  GI50: 2790 nM
  IC (TGI): 26.3 µM
  CC50: > 100 µM
  activity at 10 µM: 36.2%
UACC-257
  GI50: 3.41 µM
  IC (TGI): 10.8 µM
  activity at 10 µM: 15.3%
  CC50: 33.5 µM

## O=C(Nc1ccccc1)Nc1ccc(Oc2nnc(Cl)c3ccccc23)cc1 [Compound 13a, 1–(4-(4-Chlorophthalazin-1-yloxy)phenyl)-3-phenylurea]
PC-3
  GI50: 3260 nM
  IC (TGI): 10.6 µM
  CC50: > 25 µM
  activity at 10 µM: 25.9%
UO-31
  GI50: 3980 nM
  IC (TGI): 19.6 µM
  CC50: > 25 µM
  activity at 10 µM: 34.9%
TK-10
  GI50: 6.08 µM
  CC50: > 25 µM
  activity at 10 µM: 25.3%
  TGI: 14.9 µM
MOLT-4
  GI50: 2600 nM
  IC (TGI): 11.4 µM
  CC50: > 25 µM
MDA-MB-468
  activity at 10 µM: 0.47%
  GI50: 7.58 µM
  IC (TGI): 7.56 µM
  CC50: > 25 µM
HOP-92
  GI50: 3090 nM
  IC (TGI): 11.3 µM
  CC50: > 25 µM
  activity at 10 µM: -7.51%
SF-268
  GI50: 2.89 µM
  IC (TGI): 7.57 µM
  CC50: 19.8 µM
  activity at 10 µM: 25.9%
KM12
  GI50: 5.51 µM
  IC (TGI): > 25 µM
  CC50: > 25 µM
  activity at 10 µM: 43.6%
HT29
  GI50: 5.26 µM
  IC (TGI): > 25 µM
  CC50: > 25 µM
  activity at 10 µM: 23.8%
HL-60(TB)
  GI50: 2700 nM
  IC (TGI): > 25 µM
  CC50: > 25 µM
  activity at 10 µM: 12.1%
HCC-2998
  GI50: 4.2 µM
  IC (TGI): 12.2 µM
  LC50 (50% lethal concentration): > 25 µM
  activity at 10 µM: 52.9%
RXF 393
  GI50: 2.69 µM
  IC (TGI): 6.24 µM
  CC50: 14.5 µM
  activity at 10 µM: -3.63%
SK-OV-3
  GI50: 1460 nM
  IC (TGI): 5.51 µM
  CC50: 16.6 µM
  activity at 10 µM: -0.5%
NCI-H460
  GI50: 2670 nM
  IC (TGI): 8.65 µM
  LC50 (concentration causing 50% cell kill): > 25 µM
  activity at 10 µM: 25.2%
OVCAR-8
  GI50: 2600 nM
  IC (TGI): 6.53 µM
  CC50: 16.4 µM
  activity at 10 µM: 15.5%
OVCAR-3
  GI50: 2640 nM
  IC (TGI): 5.97 µM
  CC50: 13.5 µM
  activity at 10 µM: 25.4%
A549/ATCC
  GI50: 3.47 µM
  IC (TGI): 18.4 µM
  LC50 (concentration killing 50% of cells): > 25 µM
  activity at 10 µM: 11.2%
NCI/ADR-RES
  GI50: 2630 nM
  IC (TGI): 6.39 µM
  CC50: 15.5 µM
  activity at 10 µM: 16.9%
UACC-257
  GI50: 3.96 µM
  IC (TGI): > 25 µM
  activity at 10 µM: 22%
  CC50: > 25 µM
